Source: patent US20170319562A1, “Compositions and Methods for Extended Therapy with Aminopyridines” (Acorda Therapeutics, Inc., priority 2009, published 2017)

What was measured:
[1] = system: normal adult myelinated axons; conditions: cited from earlier work
[2] = system: patients with multiple sclerosis; assay: MS-F204EXT open-label extension study; assay type: in vivo, human; conditions: cut-off Jul. 31, 2008
Procedure: (§1) Data were presented by study pair (parent and extension).
(§2) In the MS-F204EXT study, which allowed patients to enroll directly from the parent study MS-F204, open label 4-aminopyridine-SR 10 mg b.i.d. was dispensed at visit 0 (a separate screening visit was only required if the screening visit could not be combined with the Final visit for MS-F204); visit 1 was scheduled to occur two weeks after screening visit (or visit 0), visit 2 at 12 weeks after visit 1, visit 3 at 12 weeks after visit 2. The planned interval between subsequent visits was 26 weeks. Therefore, at visit 4, a patient should have been on 4-aminopyridine-SR treatment for approximately one year.
(§3) This Example considers efficacy data collected from the three ongoing, open label extension studies (MS-F202EXT, MS-F203EXT, MS-F204EXT). The primary focus was the Timed 25-Foot Walk, assessed in a manner consistent with its evaluation in the parent double-blind studies. This included the determination of response to treatment using a criterion equivalent to the Timed Walk Response criterion used in the parent studies. […] The clinical meaningfulness of this criterion was evaluated in terms of the Subject and Clinician Global Impression scores recorded during the extension studies.
(§4) In the extension studies, a “Timed Walk Extension Responder” was defined as a patient who achieved a faster walking speed on the T25FW for the majority of on-drug treatment visits during the first year of the study (Visits 1-4 for MS-F203EXT and MS-F204EXT) than the maximum walking speed previously measured for the patient during any off-drug visits in either the parent study or in the extension study.

[3] = system: patients with multiple sclerosis; assay: MS-F202EXT open-label extension study; assay type: in vivo, human; conditions: for patients classified as Extension Timed Walk Responders: cut-off Jul. 31, 2008
Procedure: as §1
In the MS-F202EXT study, which started recruiting patients several months after the completion of the parent study, patients were required to undergo a screening visit prior to dispensing of open-label 4-aminopyridine-SR. The study began with the potential to titrate the dose upward to a maximum of 20 mg b.i.d. with titration visits at weekly intervals. A number of protocol amendments decreased the maximum dose to 15 and then to 10 mg b.i.d. and changed the planned visit intervals, but in the current amended protocol, both the dose (10 mg b.i.d.) and the interval between visits (26 weeks) has been made consistent with MS-F203EXT.
as §3, §4

[4] = Single 20 mg intravenous dose, volume of distribution; assay type: in vivo; conditions: plasma
Source text: Measurable levels are present in the saliva.

[5] = human, in vivo, po, 10 mg
[6] = Pharmacokinetics after i.v. and p.o. 4-aminopyridine (2 mg/kg) in rats; conditions: single p.o. 2 mg/kg
Source text: Distribution: The volume of distribution at steady state (Vdss) in rats has been reported to approximate total body volume (not adjusted for bioavailability).

[7] = system: patients with multiple sclerosis; assay: MS-F203EXT open-label extension study; assay type: in vivo, human; conditions: for patients classified as Extension Timed Walk Responders: cut-off Jul. 31, 2008
Procedure: as §1
as §2, with “MS-F203EXT” for “MS-F204EXT”, “MS-F203, open-label” for “MS-F204, open label”, “MS-F203);” for “MS-F204);”, “after” for “after screening”, “0,” for “(or visit 0),”
as §3, §4

[8] = two formulations of IR tablets; cited from earlier work
[9] = parent-study treated Timed Walk Non-Responders
[10] = parent-study treated Timed Walk Responders
[11] = placebo-treated in parent study
[12] = double-blind Non-Responders, year 1
[13] = double-blind Non-Responders, year 2
[14] = double-blind Responders, year 1
[15] = double-blind Responders, year 2
[16] = placebo treated in parent study, year 1
[17] = placebo treated in parent study, year 2

Nc1ccncc1 [4-aminopyridine]
concentrations causing gradual depolarization of the axon resting potential [1]: above 1 mM
concentrations at which the action potential shows little or no sensitivity ([1]; normal adult myelinated axons): below 100 μM
patients classified as Extension Timed Walk Responders ([2]; all patients): 49.3%
patients classified as Extension Timed Walk Responders [2, 9]: 30.0%
patients classified as Extension Timed Walk Responders [2, 10]: 71.4%
patients classified as Extension Timed Walk Responders [2, 11]: 50.0%
patients classified as Extension Timed Walk Responders ([3]; all patients): 15.7%
Extension Timed Walk Response rate within year [3, 12]: 11.1%
Extension Timed Walk Response rate within year [3, 13]: 5.2%
Extension Timed Walk Response rate within year ([3]; double-blind Non-Responders, year 3): 6.1%
Extension Timed Walk Response rate within year [3, 14]: 25.6%
Extension Timed Walk Response rate within year [3, 15]: 23.1%
Extension Timed Walk Response rate within year ([3]; double-blind Responders, year 3): 22.2%
patients classified as Extension Timed Walk Responders [3, 9]: 9.5%
patients classified as Extension Timed Walk Responders [3, 10]: 25.6%
Extension Timed Walk Response rate within year [3, 16]: 17.9%
Extension Timed Walk Response rate within year [3, 17]: 4.6%
Extension Timed Walk Response rate within year ([3]; placebo treated in parent study, year 3): 5.3%
patients classified as Extension Timed Walk Responders [3, 11]: 14.3%
Vd [4]: 2.6 L/kg
time of Cmax after dose administration [5]: approximately 1.1 hours
Vdss lower in females than in males [6]: 13%
decline in walking speed from the original double-blind baseline ([7]; Extension Timed Walk Non-Responders, end of the second year): approximately 8%
improvement in walking speed over the original baseline ([7]; Extension Timed Walk Responders, Visit 6): more than 20%
mean walking speed faster than double-blind baseline at each extension visit ([7]; Extension Timed Walk Responders, first year): more than 30%
patients classified as Extension Timed Walk Responders ([7]; all patients): 24.9%
Extension Timed Walk Response rate within year [7, 12]: 19.7%
Extension Timed Walk Response rate within year [7, 13]: 17.5%
Extension Timed Walk Response rate within year [7, 14]: 42.9%
Extension Timed Walk Response rate within year [7, 15]: 36.1%
patients classified as Extension Timed Walk Responders [7, 9]: 19.7%
patients classified as Extension Timed Walk Responders [7, 10]: 41.4%
Extension Timed Walk Response rate within year [7, 16]: 16.2%
Extension Timed Walk Response rate within year [7, 17]: 20.8%
patients classified as Extension Timed Walk Responders [7, 11]: 17.7%
absolute bioavailability [8]: 95%
